Where “and” joins values, the source holds several entries; their conditions need not be identical. Equal entries are not always repeated.
molecular target: PDE V (Homo sapiens, UniProt O76074); test: PDE V isoenzyme inhibition (IC50); format: biochemical; conditions: concentration required to provide 50% inhibition of PDE V
Text: The compounds of the invention can be useful for inhibiting PDE V isoenzymes. Isoenzyme activities and isoenzyme selectivities for particular compounds can be evaluated in a number of ways.

IC50 | Compound
≤ 10 nM | CCN1C(=O)c2c(nc(NC3CCOCC3)n2Cc2ccc(O)c(Br)c2)N2CCN=C12 [Compound 1]
~18 nM | CCN1C(=O)c2c(nc(NC3CCOCC3)n2Cc2cc(Br)c3c(c2)CCO3)N2CCN=C12 [Compound 36]
≤ 10 nM | CCN1C(=O)c2c(nc(N[C@@H]3CC[C@H](O)C3)n2Cc2ccc(OC)c(Br)c2)N2CCN=C12 [Compound 59]
≤ 5 nM | CCN1C(=O)c2c(nc(C(N)=O)n2Cc2cc(Cl)c3c(c2)CCO3)N2C[C@@H](Cc3ccccc3)N=C12 [Compound 10]
≤ 5 nM | CCN1C(=O)c2c(nc(C#Cc3ccccc3)n2Cc2cc(Cl)c(OC)c(Cl)c2)N2CC3(CCCC3)N=C12 [Compound 44]
≤ 10 nM and ~10 nM | CCN1C(=O)c2c(nc(OC)n2Cc2ccc(OC)c(C#N)c2)N2C[C@@H](Cc3ccccc3)N=C12 [Compound 34]
≤ 5 nM | CCN1C(=O)c2c(nc(C=NO)n2Cc2ccc(O)c(Cl)c2)N2C[C@@H](Cc3ccccc3)N=C12 [Compound 11]
≤ 6 nM | CCN1C(=O)c2c(nc(C(=O)OC)n2Cc2cc(Cl)c3c(c2)CCO3)N2C[C@@H](Cc3ccccc3)N=C12 [Compound 4]
≤ 5 nM | CCN1C(=O)c2c(nc(N[C@@H]3CCC[C@H]3O)n2Cc2ccc(OC)c(Br)c2)N2C1=NCC2C (stereo partly drawn) [Compound 56]
≤ 5 nM | CCN1C(=O)c2c(nc(C#Cc3ccccc3)n2Cc2ccc(O)c(Cl)c2)N2C[C@@H](Cc3ccccc3)N=C12 [Compound 19]
≤ 5 nM | CCN1C(=O)c2c(nc(Br)n2Cc2cc(Cl)c3c(c2)CCO3)N2C[C@@H](Cc3ccccc3)N=C12 [Compound 15]
≤ 5 nM | CCN1C(=O)c2c(ncn2Cc2cc(Cl)c3c(c2)CCO3)N2C[C@@H](Cc3ccccc3)N=C12 [Compound 6]
≤ 5 nM | CCN1C(=O)c2c(nc(NC3CCCCC3)n2Cc2ccc(O)c(Br)c2)N2C[C@@H](Cc3ccccc3)N=C12 [Compound 9]
≤ 5 nM | CCOc1nc2c(n1Cc1ccc(O)c(Br)c1)C(=O)N(CC)C1=N[C@H](Cc3ccccc3F)CN12 [Compound 54]
≤ 5 nM | CCN1C(=O)c2c(nc(OCc3ccccc3)n2Cc2ccc(O)c(Cl)c2)N2C[C@@H](Cc3ccccc3)N=C12 [Compound 13]
≤ 5 nM | CCN1C(=O)c2c(nc(C(N)=O)n2Cc2cc(Br)c3c(c2)CCO3)N2C[C@@H](Cc3ccccc3)N=C12 [Compound 8]
≤ 5 nM | CCN1C(=O)c2c(nc(NC3CCOCC3)n2Cc2ccc(OC)c(Br)c2)N2CCN=C12 [Compound 18]
~18 nM | CCN1C(=O)c2c(nc(NC3CCOCC3)n2Cc2cc(Cl)c3c(c2)CCO3)N2CCN=C12 [Compound 35]
≤ 10 nM | CCN1C(=O)c2c(nc(Br)n2Cc2cc(Br)c3c(c2)CCO3)N2C[C@@H](Cc3ccccc3)N=C12 [Compound 3]
≤ 5 nM | CCN1C(=O)c2c(nc(NC3CCOCC3)n2Cc2ccc(OC)c(Br)c2)N2CCCN=C12 [Compound 20]

The remaining lines, values behind:

Compound | IC50
CCN1C(=O)c2c(nc(NC3CCCCC3)n2Cc2ccc(OC)c(Cl)c2)N2CCN=C12 [Compound 42] | ≤ 5 nM
CCN1C(=O)c2c(nc(NC3CCSCC3)n2Cc2ccc(OC)c(Cl)c2)N2CCN=C12 [Compound 57] | ≤ 10 nM
CCN1C(=O)c2c(nc(NC3CCOCC3)n2Cc2ccc(OC)c(Cl)c2)N2CCN=C12 [Compound 16] | ≤ 10 nM and ≤ 5 nM and ≤ 6 nM and ~1.5 nM
CCN1C(=O)c2c(nc(NC3CCOCC3)n2Cc2ccc(O)c(Cl)c2)N2CCN=C12 [Compound 2] | < 8 nM
CCN1C(=O)c2c(nc(NC3CCCCC3)n2Cc2ccc(O)c(Cl)c2)N2C1=N[C@@H]1CCC[C@@H]12 [Compound 5] | ≤ 6 nM
CCN1C(=O)c2c(nc(NC3CCOCC3)n2Cc2ccc(OC)c(Cl)c2)N2CCCN=C12 [Compound 21] | ≤ 10 nM
CCN1C(=O)c2c(nc(NC3CCCC3)n2Cc2ccc(OC)c(Cl)c2)N2CCN=C12 [Compound 43] | ≤ 5 nM
CCN1C(=O)c2nc(C#Cc3ccccc3)n(Cc3ccc(OC(C)=O)cc3)c2N2CC3(CCCC3)N=C12 [Compound 7] | ≤ 5 nM
CCN1C(=O)c2nc(C#Cc3ccccc3)n(Cc3ccc(O)cc3)c2N2CC3(CCCC3)N=C12 [Compound 22] | ≤ 5 nM
CCN1C(=O)c2c(nc(NC3CCSCC3)n2Cc2ccc(OC)c(Br)c2)N2CCN=C12 [Compound 58] | ≤ 5 nM
CCN1C(=O)c2c(nc(NC3CCCCC3)n2Cc2ccc(O)c(Br)c2)N2C1=N[C@@H]1CCC[C@@H]12 [Compound 12] | ≤ 5 nM
CCN1C(=O)c2c(nc(NC3CCOCC3)n2Cc2ccc(O)c(C)c2)N2CCN=C12 [Compound 30] | ~52 nM
CCN1C(=O)c2c(nc(NC3CCCCC3)n2Cc2ccc(OC)c(Br)c2)N2C1=N[C@@H]1CCC[C@@H]12 [Compound 17] | ≤ 5 nM
CCN1C(=O)c2c(nc(NC3CCCCC3)n2Cc2ccc(OC)c(Br)c2)N2CCN=C12 [Compound 14] | ≤ 5 nM

same assay, conditions: enzyme selectivity, PDE V relative to PDE VI

ratio of PDE VI IC50/PDE V IC50 | Compound
> 600 | CCN1C(=O)c2c(nc(NC3CCOCC3)n2Cc2ccc(O)c(Cl)c2)N2CCN=C12 [Compound 2]
> 190 | CCN1C(=O)c2c(nc(NC3CCOCC3)n2Cc2ccc(O)c(C)c2)N2CCN=C12 [Compound 30]

— patent US6969719B2, “Polycyclic guanine phosphodiesterase V inhibitors” (Schering Corporation, priority 2001, dated 2005)
